Measured values as given in US8399501B2, “Crystalline alkoxyimidazol-1-ylmethyl biphenyl carboxylic acid and methods for preparing thereof” (Theravance, Inc., priority 2010, dated 2013).

Test: Solid state stability assessment (storage at 40° C. with desiccant, impurities by HPLC)
Assay type: physicochemical
Conditions: for Δ % M + 28 (increase relative to time zero) / Δ % M − 28 (increase relative to time zero) / % M + 28 (ethyl ester imidazole impurity, HPLC area percentage) / % M − 28 (acid dihydroimidazole impurity, HPLC area percentage): closed vials, Molecular Sieve 4A dessicant
Protocol: Samples of the crystalline 4′-{2-ethoxy-4-ethyl-5-[((S)-2-mercapto-4-methylpentanoyl-amino)methyl]imidazol-1-ylmethyl}-3′-fluorobiphenyl-2-carboxylic acid, the micronized crystalline compound, and the slurried micronized crystalline compound, about 15 mg each, were stored in multiple closed vials at 40° C. (with 1 g Molecular Sieve 4A dessicant included). At specific intervals, the entire contents of representative vials were analyzed by the following HPLC method:
Column: Agilent Zorbox SB-C18, 4.6×250 mm, 5 μm (Part No. 880975-902). Mobile Phase A: 80% water, 20% MeCN, 0.01% TFA. Mobile Phase B: 20% water, 80% MeCN, 0.01% TFA. Flow rate: 1 mL/min. Injection Volume: 20 μL. Detector: 225 nm.
Samples were prepared as 0.2-0.3 mg/mL stock solutions in 40% MeOH and 60% MeCN in water, depending on the solubility, for injection onto the HPLC. The amount of 4′-{2-ethoxy-4-ethyl-5-[(2-mercapto-4-methylpentanoylamino)methyl]imidazol-1-ylmethyl}-3′-fluorobiphenyl-2-carboxylic acid ethyl ester (M+28) and 4′-{4-ethyl-5-[(2-mercapto-4-methylpentanoylamino)methyl]-2-oxo-2,3-dihydroimidazol-1-ylmethyl}-3′-fluorobiphenyl-2-carboxylic acid (M−28) present were determined by HPLC area percentage (% AUC or area/area %).

[1] = 2 weeks at 40° C., listed as Ex. 2
[2] = 4 weeks at 40° C., listed as Ex. 2
[3] = 2 weeks at 40° C., listed as Ex. 3
[4] = 2 weeks at 40° C., listed as stable micronized acid imidazole
[5] = 4 weeks at 40° C., listed as Ex. 3
[6] = 4 weeks at 40° C., listed as stable micronized acid imidazole
[7] = 2 weeks at 40° C., listed as Ex. 1
[8] = 4 weeks at 40° C., listed as Ex. 1

## CCOc1nc(CC)c(CNC(=O)[C@@H](S)CC(C)C)n1Cc1ccc(-c2ccccc2C(=O)O)cc1F [Example 2, 4′-{2-ethoxy-4-ethyl-5-[((S)-2-mercapto-4-methylpentanoylamino)-methyl]imidazol-1-ylmethyl}-3′-fluorobiphenyl-2-carboxylic acid]
2 weeks at 40° C.
  Δ % M + 28 (increase relative to time zero): about 0.30%
  Δ % M − 28 (increase relative to time zero): about 0.38%
[1]
  % M + 28 (ethyl ester imidazole impurity, HPLC area percentage): 0.40%
  % M − 28 (acid dihydroimidazole impurity, HPLC area percentage): 0.47%
  Δ % M + 28 (increase relative to time zero): 0.30%
  Δ % M − 28 (increase relative to time zero): 0.38%
[2]
  % M + 28 (ethyl ester imidazole impurity, HPLC area percentage): 0.44%
  % M − 28 (acid dihydroimidazole impurity, HPLC area percentage): 0.61%
  Δ % M + 28 (increase relative to time zero): 0.34%
  Δ % M − 28 (increase relative to time zero): 0.52%
T = 0, 40° C., listed as Ex. 2
  % M + 28 (ethyl ester imidazole impurity, HPLC area percentage): 0.10%
  % M − 28 (acid dihydroimidazole impurity, HPLC area percentage): 0.09%

## CCOc1nc(CC)c(CNC(=O)[C@@H](S)CC(C)C)n1Cc1ccc(-c2ccccc2C(=O)O)cc1F [Example 3, 4′-{2-ethoxy-4-ethyl-5-[((S)-2-mercapto-4-methylpentanoylamino)methyl]imidazol-1-ylmethyl}-3′-fluorobiphenyl-2-carboxylic acid]
2 weeks at 40° C.
  Δ % M + 28 (increase relative to time zero): about 0.01%
  Δ % M − 28 (increase relative to time zero): about 0.05%
[3]
  % M + 28 (ethyl ester imidazole impurity, HPLC area percentage): 0.07%
  % M − 28 (acid dihydroimidazole impurity, HPLC area percentage): 0.20%
  Δ % M + 28 (increase relative to time zero): 0.01%
  Δ % M − 28 (increase relative to time zero): 0.05%
[4]
  Δ % M + 28 (increase relative to time zero): ≤ 0.1%
  Δ % M − 28 (increase relative to time zero): ≤ 0.1%
4 weeks at 40° C.
  Δ % M + 28 (increase relative to time zero): about 0.02%
  Δ % M − 28 (increase relative to time zero): about 0.09%
[5]
  % M + 28 (ethyl ester imidazole impurity, HPLC area percentage): 0.08%
  % M − 28 (acid dihydroimidazole impurity, HPLC area percentage): 0.24%
  Δ % M + 28 (increase relative to time zero): 0.02%
  Δ % M − 28 (increase relative to time zero): 0.09%
[6]
  Δ % M + 28 (increase relative to time zero): ≤ 0.1%
  Δ % M − 28 (increase relative to time zero): ≤ 0.1%
T = 0, 40° C., listed as Ex. 3
  % M + 28 (ethyl ester imidazole impurity, HPLC area percentage): 0.06%
  % M − 28 (acid dihydroimidazole impurity, HPLC area percentage): 0.15%
About 40° C. for at least 2 weeks, with a desiccant such as molecular sieves
  chemical degradation by HPLC after storage: minimal chemical degradation

## CCOc1nc(CC)c(CNC(=O)[C@@H](S)CC(C)C)n1Cc1ccc(-c2ccccc2C(=O)O)cc1F [Example 1, 4′-{2-Ethoxy-4-ethyl-5-[((S)-2-mercapto-4-methylpentanoylamino)methyl]imidazol-1-ylmethyl}-3′-fluorobiphenyl-2-carboxylic Acid]
[7]
  % M + 28 (ethyl ester imidazole impurity, HPLC area percentage): 0.05%
  % M − 28 (acid dihydroimidazole impurity, HPLC area percentage): 0.04%
  Δ % M + 28 (increase relative to time zero): 0.05%
  Δ % M − 28 (increase relative to time zero): −0.01%
[8]
  % M + 28 (ethyl ester imidazole impurity, HPLC area percentage): 0.05%
  % M − 28 (acid dihydroimidazole impurity, HPLC area percentage): 0.05%
  Δ % M + 28 (increase relative to time zero): 0.05%
  Δ % M − 28 (increase relative to time zero): 0%
T = 0, 40° C., listed as Ex. 1
  % M + 28 (ethyl ester imidazole impurity, HPLC area percentage): 0%
  % M − 28 (acid dihydroimidazole impurity, HPLC area percentage): 0.05%
